Where two headings read alike, the source gives them in different places.
Key:
KM12 cells = assay: KM12 cell viability (CellTiter-Glo); type: cell-based; conditions: Homo sapiens
Outline: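 Three-day exposure of KM12 cells (5000/well, RPMI 1640 with 10% FBS, 37 °C, 5% CO2) to compound dilution series, 3-fold over 8 or 11 points (top 1000 nM in the 8-point format) or 2-fold over 12. CellTiter-Glo readout, with IC50 fitted by nonlinear least-squares regression.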

TPM3-TRKA fusion protein = molecular target: T1, TPM3-TRKA fusion protein (Homo sapiens, UniProt P04629); assay: TPM3-TRKA fusion protein levels in KM12 cells (Western blot); type: cell-based; conditions: read-out: Degradation (at 10 nM)
T1 construct: The resulted chimeric proteins always retain the kinase domain of TRK proteins; TPM3 (fusion partner, N-terminal part of tropomyosin alpha-3, P06753); endogenous in cells; host or cells: KM12 colon cancer cells; the other entry of the earlier key: TPM3 (P06753, Tropomyosin alpha-3 chain)
T1 sequence (P04629 with tags, fused parts or gaps): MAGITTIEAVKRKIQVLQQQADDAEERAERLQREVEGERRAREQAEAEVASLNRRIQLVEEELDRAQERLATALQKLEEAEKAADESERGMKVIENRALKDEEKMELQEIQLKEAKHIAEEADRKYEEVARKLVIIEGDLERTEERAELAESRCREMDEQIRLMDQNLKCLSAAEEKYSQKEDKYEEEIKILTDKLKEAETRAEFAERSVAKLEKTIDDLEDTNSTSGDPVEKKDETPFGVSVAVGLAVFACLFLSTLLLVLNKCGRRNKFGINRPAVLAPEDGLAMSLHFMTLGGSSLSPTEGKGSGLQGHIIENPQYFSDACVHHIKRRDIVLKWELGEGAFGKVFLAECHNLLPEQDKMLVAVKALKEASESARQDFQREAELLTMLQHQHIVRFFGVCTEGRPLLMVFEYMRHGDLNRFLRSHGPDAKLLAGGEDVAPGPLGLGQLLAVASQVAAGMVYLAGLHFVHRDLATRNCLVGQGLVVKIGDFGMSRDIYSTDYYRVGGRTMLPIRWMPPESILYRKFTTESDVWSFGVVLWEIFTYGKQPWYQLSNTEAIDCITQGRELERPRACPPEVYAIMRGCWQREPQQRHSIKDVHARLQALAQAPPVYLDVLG
Outline: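 TPM3-TRKA levels were assessed by Western blot with chemiluminescent detection and band densitometry, after SDS-PAGE of BCA-normalized RIPA lysates. Before lysis, KM12 cells received DMSO, compounds or matched control compounds at concentrations including 0.1, 1, 10 and 100 nM and 0.4–30 nM. Exposures lasted 4 h, 8–16 h or 16 h.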

[1] = 72 h, KM12 cell viability, CellTiter-Glo, three days treatment, read-out: IC50
[2] = 16 h, TPM3-TRKA degradation in KM12 cells at 10 nM compound, category of percentage degradation

Row | percent degradation of TPM3-TRKA protein at 0.01 µM (TPM3-TRKA fusion protein; [2]) [%] | SMILES | IC50 (KM12 cells; [1]) [nM] | percent degradation of TPM3-TRKA protein at 0.01 µM (TPM3-TRKA fusion protein; KM12, 16 h) [%] | IC50 (KM12 cells; KM12, 72 h) [nM]
1 |  | O=C1CCC(N2Cc3cc(C4CN(C5CCN(c6cccc(-c7cnc8ccc(N9CCC[C@@H]9c9cccc(F)c9)nn78)n6)CC5)C4)ccc3C2=O)C(=O)N1 (stereo partly drawn) [TR-302, 3-(5-(1-(1-(6-(6-((R)-2-(3-fluorophenyl)pyrrolidin-1-yl)imidazo[1,2-b]pyridazin-3-yl)pyridin-2-yl)piperidin-4-yl)azetidin-3-yl)-1-oxoisoindolin-2-yl)piperidine-2,6-dione] | 1.7 | > 80 | 
2 | > 80 | Cn1c(=O)n(C2CCC(=O)NC2=O)c2cccc(C#CCN3CCN(c4ccc(C(=O)Nc5n[nH]c6ccc(Cc7cc(F)cc(F)c7)cc56)c(NC5CCOCC5)c4)CC3)c21 (stereo not shown) [TR-303, N-(5-(3,5˜Difluorobenzyl)-1H-indazol-3-yl)-4-(4-(3-(1-(2,6-dioxopiperidin-3-yl)-3-methyl-2-oxo-2,3˜dihydro-1/7-benzo[d]imidazol-4-yl)prop-2-yn-1-yl)piperazin-1-yl)-2-((tetrahydro-2/-pyran-4-yl)amino)benzamide] | 8.4 |  | 
3 | > 80 | Cn1c(=O)n(C2CCC(=O)NC2=O)c2cccc(CCCCN3CCN(c4ccc(C(=O)Nc5n[nH]c6ccc(Cc7cc(F)cc(F)c7)cc56)c(NC5CCOCC5)c4)CC3)c21 (stereo not shown) [TR-304, N-(5-(3,5-difluorobenzyl)-1H-indazol-3-yl)-4-(4-(4-(1-(2,6-dioxopiperidin-3-yl)-3-methyl-2-oxo-2,3-dihydro-1H-benzo[d]imidazol-4-yl)butyl)piperazin-1-yl)-2-((tetrahydro-2H-pyran-4-yl)amino)benzamide] | 1.5 |  | 
4 | > 80 | Cn1c(=O)n(C2CCC(=O)NC2=O)c2cccc(CCCN3CCN(c4ccc(C(=O)Nc5n[nH]c6ccc(Cc7cc(F)cc(F)c7)cc56)c(NC5CCOCC5)c4)CC3)c21 (stereo not shown) [TR-305, N-(5-(3,5˜Difluorobenzyl)-1H-indazol-3-yl)-4-(4-(3-(1-(2,6-dioxopiperidin-3-yl)-3-methyl-2-oxo-2,3-dihydro-1H-benzo[d]imidazol-4-yl)propyl)piperazin-1-yl)-2-((tetrahydro-2H-pyran-4-yl)amino)benzamide] | 2.5 |  | 
5 | > 80 | Cn1c(=O)n(C2CCC(=O)NC2=O)c2cccc(C#CCCN3CCN(c4ccc(C(=O)Nc5n[nH]c6ccc(Cc7cc(F)cc(F)c7)cc56)c(NC5CCOCC5)c4)CC3)c21 (stereo not shown) [TR-306, N-(5-(3,5-difluorobenzyl)-1H-indazol-3-yl)-4-(4-(4-(1-(2,6-dioxopiperidin-3-yl)-3-methyl-2-oxo-2,3-dihydro-1H-benzo[d]imidazol-4-yl)but-3-yn-1-yl)piperazin-1-yl)-2-((tetrahydro-2H-pyran-4-yl)amino)benzamide] | 4 |  | 
6 |  | O=C1CCC(N2C(=O)c3ccc(C4CN(C5CCN(c6cccc(-c7cnc8ccc(N9CCC[C@@H]9c9cccc(F)c9)nn78)n6)CC5)C4)cc3C2=O)C(=O)N1 (stereo partly drawn) [TR-308, 2-(2,6-dioxopiperidin-3-yl)-5-(1-(1-(6-(6-((R)-2-(3-fluorophenyl)pyrrolidin-1-yl)imidazo[1,2-b]pyridazin-3-yl)pyridin-2-yl)piperidin-4-yl)azetidin-3-yl)isoindoline-1,3-dione] | 11.8 | > 80 | 
7 |  | O=C1CCC(N2Cc3ccc(C4CN(C5CCN(c6cccc(-c7cnc8ccc(N9CCC[C@@H]9c9cccc(F)c9)nn78)n6)CC5)C4)cc3C2=O)C(=O)N1 (stereo partly drawn) [TR-309, 3-(6-(1-(1-(6-(6-((R)-2-(3-fluorophenyl)pyrrolidin-1-yl)imidazo[1,2-b]pyridazin-3-yl)pyridin-2-yl)piperidin-4-yl)azetidin-3-yl)-1-oxoisoindolin-2-yl)piperidine-2,6-dione] | 4.3 | 50 to 80 | 
8 |  | Cn1c(=O)n(C2CCC(=O)NC2=O)c2ccc(OCCN3CCN(c4ccc(C(=O)Nc5n[nH]c6ccc(Cc7cc(F)cc(F)c7)cc56)c(NC5CCOCC5)c4)CC3)cc21 (stereo not shown) [TR-314, N-(5-(3,5˜Difluorobenzyl)-1H-indazol-3-yl)-4-(4-(2-((1-(2,6-dioxopiperidin-3˜yl)-3-methyl-2-oxo-2,3-dihydro-1H-benzo[d]imidazol-5-yl)oxy)ethyl)piperazin-1-yl)-2-((tetrahydro-2H-pyran-4-yl)amino)benzamide] |  | 50 to 80 | 213
9 | > 80 | Cn1c(=O)n(C2CCC(=O)NC2=O)c2cccc(NCCCN3CCN(c4ccc(C(=O)Nc5n[nH]c6ccc(Cc7cc(F)cc(F)c7)cc56)c(NC5CCOCC5)c4)CC3)c21 (stereo not drawn) [TR-315, N—(S-(3,5-difluorobenzyl)-1H-indazol-3-yl)-4-(4-(3-((1-(2,6-dioxopiperidin-3-yl)-3-methyl-2-oxo-2,3-dihydro-1H-benzo[d]imidazol-4-yl)amino)propyl)piperazin-1-yl)-2-((tetrahydro-2H-pyran-4-yl)amino)benzamide] | 4.5 |  | 
10 | > 80 | Cn1c(=O)n(C2CCC(=O)NC2=O)c2ccc(NCCCN3CCN(c4ccc(C(=O)Nc5n[nH]c6ccc(Cc7cc(F)cc(F)c7)cc56)c(NC5CCOCC5)c4)CC3)cc21 (stereo not shown) [TR-316, N-(5-(3,5-difluorobenzyl)-1H-indazol-3-yl)-4-(4-(3-((1-(2,6-dioxopiperidin-3-yl)-3-methyl-2-oxo-2,3-dihydro-1H-benzo[d]imidazol-5-yl)amino)propyl)piperazin-1-yl)-2-((tetrahydro-2H-pyran-4-yl)amino)benzamide] | 2.3 |  | 
11 | > 80 | O=C1CCC(N2Cc3ccc(N4CC(CN5CCN(c6cccc(-c7cnc8ccc(N9CCC[C@@H]9c9cccc(F)c9)nn78)n6)CC5)C4)cc3C2=O)C(=O)N1 (stereo partly drawn) [TR-317, 3-(6-(3-((4-(6-(6-((R)-2-(3-fluorophenyl)pyrrolidin-1-yl)imidazo[1,2-b]pyridazin-3-yl)pyridin-2-yl)piperazin-1-yl)methyl)azetidin-1-yl)-1-oxoisoindolin-2-yl)piperidine-2,6-dione] | 5 |  | 
12 | > 80 | O=C1CCC(N2Cc3ccc(N4CC(CN5CCN(c6ccc(C(=O)Nc7n[nH]c8ccc(Cc9cc(F)cc(F)c9)cc78)c(NC7CCOCC7)c6)CC5)C4)cc3C2=O)C(=O)N1 (stereo not shown) [TR-318, N-(5-(3,5-difluorobenzyl)-1H-indazol-3-yl)-4-(4-((1-(2-(2,6-dioxopiperidin-3-yl)-3-oxoisoindolin-5-yl)azetidin-3-yl)methyl)piperazin-1-yl)-2-((tetrahydro-2H-pyran-4-yl)amino)benzamide] | 2.4 |  | 
13 | > 80 | Cn1c(=O)n(C2CCC(=O)NC2=O)c2ccc(C#CCCN3CCN(c4ccc(C(=O)Nc5n[nH]c6ccc(Cc7cc(F)cc(F)c7)cc56)c(NC5CCOCC5)c4)CC3)cc21 (stereo not shown) [TR-319, N-(5-(3,5-difluorobenzyl)-1H-indazol-3-yl)-4-(4-(4-(1-(2,6-dioxopiperidin-3-yl)-3-methyl-2-oxo-2,3-dihydro-1H-benzo[d]imidazol-5-yl)but-3-yn-1-yl)piperazin-1-yl)-2-((tetrahydro-2H-pyran-4-yl)amino)benzamide] | 5.7 |  | 
14 | > 80 | Cn1c(=O)n(C2CCC(=O)NC2=O)c2ccc(CCCCN3CCN(c4ccc(C(=O)Nc5n[nH]c6ccc(Cc7cc(F)cc(F)c7)cc56)c(NC5CCOCC5)c4)CC3)cc21 (stereo not drawn) [TR-320, N—(S-(3,5-difluorobenzyl)-1H-indazol-3-yl)-4-(4-(4-(1-(2,6-dioxopiperidin-3-yl)-3-methyl-2-oxo-2,3-dihydro-1H-benzo[d]imidazol-5-yl)butyl)piperazin-1-yl)-2-((tetrahydro-2H-pyran-4-yl)amino)benzamide] | 1.4 |  | 
15 | > 80 | Cn1c(=O)n(C2CCC(=O)NC2=O)c2ccc(N3CC(CN4CCN(c5ccc(C(=O)Nc6n[nH]c7ccc(Cc8cc(F)cc(F)c8)cc67)c(NC6CCOCC6)c5)CC4)C3)cc21 (stereo not shown) [TR-321, N-(5-(3,5-difluorobenzyl)-1H-indazol-3-yl)-4-(4-((1-(1-(2,6-dioxopiperidin-3-yl)-3-methyl-2-oxo-2,3-dihydro-1H-benzo[d]imidazol-5-yl)azetidin-3-yl)methyl)piperazin-1-yl)-2-((tetrahydro-2H-pyran-4-yl)amino)benzamide] | 2.3 |  | 
16 |  | Cn1c(=O)n(C2CCC(=O)NC2=O)c2cccc(OCCN3CCN(c4ccc(C(=O)Nc5n[nH]c6ccc(Cc7cc(F)cc(F)c7)cc56)c(NC5CCOCC5)c4)CC3)c21 (stereo not shown) [TR-322, N-(5-(3,5˜Difluorobenzyl)-1H-indazol-3-yl)-4-(4-(2-((1-(2,6-dioxopiperidin-3-yl)-3-methyl-2-oxo-2,3-dihydro-1H-benzo[d]imidazol-4-yl)oxy)ethyl)piperazin-1-yl)-2-((tetrahydro-2H-pyran˜4-yl)amino)benzamide] |  | < 50 | 168
17 |  | O=C1CCC(N2Cc3cc(C#CC4CCN(c5ccc(C(=O)Nc6n[nH]c7ccc(Cc8cc(F)cc(F)c8)cc67)c(NC6CCOCC6)c5)CC4)ccc3C2=O)C(=O)N1 (stereo not shown) [TR-323, N-(5-(3,5-Difluorobenzyl)-1H-indazol-3-yl)-4-(4-((2-(2,6-dioxopiperidin-3-yl)-1-oxoisoindolin-5-yl)ethynyl)piperidin-1-yl)-2-((tetrahydro-2H-pyran-4-yl)amino)benzamide] | 31 | > 80 | 
